Assay results: patent publication US10167299B2, “1-(3-aminopropyl) substituted cyclic amine compounds, preparation method therefor, and pharmaceutical compositions and uses thereof” (SHANGHAI INSTITUTE OF MATERIA MEDICA, CHINESE ACADEMY OF …, priority 2013, dated 2019)

Experiments:
[1] = Pharmacokinetic experiment of rats; details: for AUC(0-t) / AUC(0-inf) / Cmax / MRT / Tmax / bioavailability: male, rat, plasma
Experimental: The administration volume was 10 mL/kg and drug was formulated with DMSO/Tween 80/physiological saline (5:5:90, v/v/v). […] 2 h after dosing, the rats ate together.
At above time points, 0.3 ml of venous blood was taken from retrobulbar venous plexus of the rat and loaded into EDTA-2K anticoagulative tube. After centrifuged at 11000 rpm for 5 mm, the plasma was separated and frozen at −20° C. in a refrigerator.
The concentration of each compound in rat plasma was determined by LC/MS/MS.
(§3) The pharmacokinetic parameters after administration were calculated by using non-compartment model of WinNonlin 5.3 software (Pharsight Corporation, USA).

[2] = tested on: Salmonella typhimurium strain TA98; assay: Bacterial reverse mutation assay TA98 (-S9); type: cell-based; details: for mutagenic effect on Salmonella typhimurium strain TA98: -S9, 1-5000 μg/dish
Experimental: (§1) The mutagenic effects of compounds 18 and 22 of the present invention on Salmonella typhimurium strains TA98 and TA100 in non-metabolic activation (-S9) condition were determined. Two strains, TA98 and TA100 were chosen in bacterial reverse mutation assay for compounds 18 and 22. 9 doses containing […], negative and positive controls were set in experiments. 3 dishes were used for each dose. The experiment was carried out under -S9 condition.

[3] = tested on: Salmonella typhimurium strain TA100; assay: Bacterial reverse mutation assay TA100 (-S9); type: cell-based; details: for mutagenic effect on Salmonella typhimurium strain TA100: -S9, 1-5000 μg/dish
Experimental: as §1

HOS-CD4-CCR5 cells = assay: Toxicity test of compounds on HOS-CD4-CCR5 cells (MTT); type: cell-based; details: HOS-CD4+-CCR5 cells (Table 8)
Summary of the method: (§2)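 Six-point 5-fold dilutions of compound in 10% FBS RPMI-1640 or DMEM, in triplicate, with HOS-CD4-CCR5 cells (4×10^5/ml) for 3 days or PHA-stimulated PBMC (5×10^6/ml) for 7 days, fed on day 3, at 37 °C, 5% CO2. Viability by MTT, OD 570 nm, reference 630 nm.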

[4] = Pharmacokinetic experiment on Beagles
Experimental: The administration volume was 2 mL/kg and 1 mL/kg, respectively. The compound was suspended in 20% PEG400 (4:96) for gavage and formulated in DMSO/Tween 80/physiological saline (5:1:94, v/v/v) for intravenous injection. […] 2 h after dosing, all of Beagles ate together.
At above time points, 0.6 ml venous blood was taken from limb venous and loaded into EDTA-2K anticoagulative tube. After centrifuged at 11000 rpm for 5 mm, the plasma was separated and frozen at −20° C. in a refrigerator.
as §3

PBMC cells = assay: Toxicity test of compounds on PBMC cells (MTT); type: cell-based
Summary of the method: as §2

[5] = male, beagle, dog, plasma, iv, 3 mg/kg
[6] = male, beagle, dog, plasma, po, 15 mg/kg

## Cc1nnc(C(C)C)n1C1CCN(CC[C@H](NC(=O)C2CCCC2)c2cccs2)CC1 [Compound 17, N-[(1S)-3-[4-(3-isopropyl-5-methyl-4H-1,2,4-triazol-4-yl)-piperidin-1-yl]-1-(thiophen-2-yl)propyl]cyclopentane-1-carboxamide]
[1]; intravenous, 10 mg/kg
  AUC(0-t): 374 ng·h/mL
[1]; iv, 10 mg/kg
  AUC(0-inf): 394 ng·h/mL
  AUC(0-t): 374 ng·h/mL
  Cmax: 246 ng/mL
  MRT: 1.42 h
  Tmax: 0.25 h
[1]; oral
  bioavailability: 46.6%
[1]; po, 20 mg/kg
  AUC(0-inf): 364 ng·h/mL
  AUC(0-t): 348 ng·h/mL
  Cmax: 122 ng/mL
  MRT: 2.31 h
  Tmax: 0.5 h
  bioavailability: 46.6%
[1]; rats, gavage, 20 mg/kg
  AUC0-t ng/mL * h: 347.9 ng·h/mL
[1]; rats, vein, 10 mg/kg
  CLz: 423 mL/min/kg

## Cc1nnc(C(C)C)n1C1CC2CCC(C1)N2CC[C@H](NC(=O)C1CCCC1)c1cccs1 (stereo partly drawn) [Compound 18, N-[(1S)-3-[exo-3-(3-isopropyl-5-methyl-4H-1,2,4-triazol-4-yl)-8-azabicyclo[3.2.1]octane-8-yl]-1-(thiophen-2-yl)propyl]cyclopentane-1-carboxamide]
[2]
  mutagenic effect on Salmonella typhimurium strain TA98: no mutagenic effect
[2]; TA98, -S9, 1 μg/dish
  number of revertant colonies (Mean ± SD): 24 ± 5.0
[2]; TA98, -S9, 3 μg/dish
  number of revertant colonies (Mean ± SD): 23 ± 2.6
[2]; TA98, -S9, 10 μg/dish
  number of revertant colonies (Mean ± SD): 20 ± 2.3
[2]; TA98, -S9, 30 μg/dish
  number of revertant colonies (Mean ± SD): 19 ± 1.5
[2]; TA98, -S9, 100 μg/dish
  number of revertant colonies (Mean ± SD): 15 ± 4.6
[2]; TA98, -S9, 300 μg/dish
  number of revertant colonies (Mean ± SD): 20 ± 4.2
[2]; TA98, -S9, 1000 μg/dish
  number of revertant colonies (Mean ± SD): 18 ± 1.5
[2]; TA98, -S9, 3000 μg/dish
  number of revertant colonies (Mean ± SD): 21 ± 1.5
[2]; TA98, -S9, 5000 μg/dish
  number of revertant colonies (Mean ± SD): 20 ± 4.9
[3]
  mutagenic effect on Salmonella typhimurium strain TA100: no mutagenic effect
[3]; TA100, -S9, 1 μg/dish
  number of revertant colonies (Mean ± SD): 116 ± 9.0
[3]; TA100, -S9, 3 μg/dish
  number of revertant colonies (Mean ± SD): 96 ± 10.0
[3]; TA100, -S9, 10 μg/dish
  number of revertant colonies (Mean ± SD): 95 ± 13.1
[3]; TA100, -S9, 30 μg/dish
  number of revertant colonies (Mean ± SD): 100 ± 8.3
[3]; TA100, -S9, 100 μg/dish
  number of revertant colonies (Mean ± SD): 88 ± 0.6
[3]; TA100, -S9, 300 μg/dish
  number of revertant colonies (Mean ± SD): 91 ± 18.2
[3]; TA100, -S9, 1000 μg/dish
  number of revertant colonies (Mean ± SD): 106 ± 17.6
[3]; TA100, -S9, 3000 μg/dish
  number of revertant colonies (Mean ± SD): 108 ± 6.9
[3]; TA100, -S9, 5000 μg/dish
  number of revertant colonies (Mean ± SD): 95 ± 7.2

## Cc1nnc(C(C)C)n1C1CC2CCC(C1)N2CC[C@H](NC(=O)C1CCC(F)(F)CC1)c1ccsc1 (stereo partly drawn) [Compound 22, 4,4-difluoro-N-[(1S)-3-[exo-3-(3-isopropyl-5-methyl-4H-1,2,4-triazol-4-yl)-8-azabicyclo[3.2.1]octane-8-yl]-1-(thiophen-3-yl)propyl]cyclohexane-1-carboxamide]
HOS-CD4-CCR5 cells
  CC50: >800 µg/mL
[2]
  mutagenic effect on Salmonella typhimurium strain TA98: no mutagenic effect
[2]; TA98, -S9, 1 μg/dish
  number of revertant colonies (Mean ± SD): 23 ± 3.2
[2]; TA98, -S9, 3 μg/dish
  number of revertant colonies (Mean ± SD): 24 ± 3.6
[2]; TA98, -S9, 10 μg/dish
  number of revertant colonies (Mean ± SD): 23 ± 2.6
[2]; TA98, -S9, 30 μg/dish
  number of revertant colonies (Mean ± SD): 21 ± 5.2
[2]; TA98, -S9, 100 μg/dish
  number of revertant colonies (Mean ± SD): 23 ± 6.7
[2]; TA98, -S9, 300 μg/dish
  number of revertant colonies (Mean ± SD): 23 ± 6.5
[2]; TA98, -S9, 1000 μg/dish
  number of revertant colonies (Mean ± SD): 19 ± 6.4
[2]; TA98, -S9, 3000 μg/dish
  number of revertant colonies (Mean ± SD): 22 ± 5.0
[2]; TA98, -S9, 5000 μg/dish
  number of revertant colonies (Mean ± SD): 25 ± 7.2
[3]
  mutagenic effect on Salmonella typhimurium strain TA100: no mutagenic effect
[3]; TA100, -S9, 1 μg/dish
  number of revertant colonies (Mean ± SD): 107 ± 16.7
[3]; TA100, -S9, 3 μg/dish
  number of revertant colonies (Mean ± SD): 109 ± 9.3
[3]; TA100, -S9, 10 μg/dish
  number of revertant colonies (Mean ± SD): 112 ± 10.7
[3]; TA100, -S9, 30 μg/dish
  number of revertant colonies (Mean ± SD): 90 ± 11.0
[3]; TA100, -S9, 100 μg/dish
  number of revertant colonies (Mean ± SD): 97 ± 4.6
[3]; TA100, -S9, 300 μg/dish
  number of revertant colonies (Mean ± SD): 102 ± 2.9
[3]; TA100, -S9, 1000 μg/dish
  number of revertant colonies (Mean ± SD): 90 ± 6.5
[3]; TA100, -S9, 3000 μg/dish
  number of revertant colonies (Mean ± SD): 86 ± 13.1
[3]; TA100, -S9, 5000 μg/dish
  number of revertant colonies (Mean ± SD): 109 ± 17.5
[4]
  AUC(0-t): 10900 ng·h/mL
[4]; Beagles, gavage, 15 mg/kg
  AUC0-t ng/mL * h: 5426 ng·h/mL
  Tmax h: 0.833 h
  t1/2 h: 3.89 h
[4]; Beagles, vein, 3 mg/kg
  CLz: 4.63 mL/min/kg
[4]; male, beagle, dog, plasma, intravenous, 3 mg/kg
  AUC(0-t): 10900 ng·h/mL
[4]; [5]
  AUC(0-inf): 10900 ng·h/mL
  MRT: 1.65 h
  half-life: 1.73 h
[4]; male, beagle, dog, plasma, oral
  bioavailability: 9.98%
[4]; [6]
  AUC(0-inf): 5520 ng·h/mL
  AUC(0-t): 5430 ng·h/mL
  Cmax: 4610 ng/mL
  MRT: 2.11 h
  bioavailability: 9.98%
  half-life: 3.89 h
[4]; male, beagle, dog, plasma, po, 15 mg/kg, Tmax h, Beagles, gavage
  Tmax: 0.833 h

## Cc1ccc([C@H](CCN2C3CCC2CC(n2c(C)nnc2C(C)C)C3)NC(=O)C2CCC(F)(F)CC2)s1 (stereo partly drawn) [Compound 29, 4,4-difluoro-N-[(1S)-3-[exo-3-(3-isopropyl-5-methyl-4H-1,2,4-triazol-4-yl)-8-azabicyclo[3.2.1]octane-8-yl]-1-(5-methylthiophen-2-yl)propyl]cyclohexane-1-carboxamide]
HOS-CD4-CCR5 cells
  CC50: >200 µg/mL
PBMC cells; PBMC cells (Table 5)
  CC50: >200 µg/mL
PBMC cells; PBMC cells (Table 6)
  CC50: >200 µg/mL
